This assay concerns the target T1, androgen receptor (AR) (Homo sapiens, UniProt P10275).
T1 sequence (P10275 1-920): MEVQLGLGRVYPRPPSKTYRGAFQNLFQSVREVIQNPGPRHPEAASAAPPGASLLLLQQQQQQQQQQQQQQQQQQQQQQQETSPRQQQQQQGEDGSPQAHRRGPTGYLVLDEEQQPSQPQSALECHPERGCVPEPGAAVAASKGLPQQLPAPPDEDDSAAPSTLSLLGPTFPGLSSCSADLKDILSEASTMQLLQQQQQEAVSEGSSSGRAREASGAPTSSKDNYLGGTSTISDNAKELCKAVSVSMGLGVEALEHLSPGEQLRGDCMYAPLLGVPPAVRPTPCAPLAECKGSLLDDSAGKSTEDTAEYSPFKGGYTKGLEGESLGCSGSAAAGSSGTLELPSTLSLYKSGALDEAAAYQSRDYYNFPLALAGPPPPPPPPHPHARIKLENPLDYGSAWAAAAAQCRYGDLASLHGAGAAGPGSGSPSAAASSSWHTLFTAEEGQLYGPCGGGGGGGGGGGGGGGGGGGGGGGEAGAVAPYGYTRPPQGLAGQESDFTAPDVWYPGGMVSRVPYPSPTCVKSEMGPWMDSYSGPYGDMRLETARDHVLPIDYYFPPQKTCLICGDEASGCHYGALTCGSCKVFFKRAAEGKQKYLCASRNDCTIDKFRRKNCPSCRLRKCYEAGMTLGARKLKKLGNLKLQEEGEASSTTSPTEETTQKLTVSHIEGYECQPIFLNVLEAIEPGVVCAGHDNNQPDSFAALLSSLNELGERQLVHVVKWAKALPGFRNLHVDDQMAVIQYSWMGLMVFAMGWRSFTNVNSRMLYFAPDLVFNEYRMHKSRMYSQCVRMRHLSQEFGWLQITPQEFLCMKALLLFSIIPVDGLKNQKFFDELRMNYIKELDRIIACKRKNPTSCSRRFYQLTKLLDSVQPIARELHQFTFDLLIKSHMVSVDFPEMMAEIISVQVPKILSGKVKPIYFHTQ
Briefly: Degradation of androgen receptor (AR) protein in VCaP cells by ELISA. It is filed as cell-based. The note with it: for DC50: read-out: DC50; for Dmax: VCaP. In general terms: An ELISA detects its analyte on a solid surface through an enzyme-linked reagent.

Setting [1] is: AR degradation, VCaP cells, 16 h, ELISA, Table 3-1.
The mark [2] stands for this setting: AR degradation, VCaP cells, 16 h, ELISA, Table 3-1, read-out: Dmax (%).

Where two headings read alike, the source gives them in different places. A value given as a limit tells only on which side of the number the result lay.

The term DC50 denotes the concentration giving 50% degradation. Consider `N#Cc1ccc(OC2CCC(NC(=O)c3ncn(C4CCC(CN5CCC6(CC5)CN(c5cc7c(cc5F)C(=O)N(C5CCC(=O)NC5=O)C7=O)C6)CC4)n3)CC2)cc1Cl` [Compound 85, N-((1r,4R)-4-(3-chloro-4-cyanophenoxy)cyclohexyl)-1-((1r,4R)-4-((2-(2,6-dioxopiperidin-3-yl)-6-fluoro-1,3-dioxoisoindolin-5-yl)-2,7-diazaspiro[3.5]nonan-7-yl)methyl)cyclohexyl)-1H-1,2,4-triazole-3-formamide], for which, under setting [1], the “Dmax (%)” value is listed as “++++ (>80%)” and the DC50 is 10 to 100 nM.
The term Dmax denotes the greatest extent of degradation seen. Turning to `N#Cc1ccc(O[C@H]2CC[C@H](NC(=O)c3ncnn3[C@H]3CC[C@H](CN4CCC5(CC4)CN(c4ccc6c(c4)C(=O)N(C4CCC(=O)NC4=O)C6=O)C5)CC3)CC2)cc1Cl` (stereo partly drawn) [Compound 86, N-((1r,4R)-4-(3-chloro-4-cyanophenoxy)cyclohexyl)-1-((1r,4R)-4-((2-(2-(2,6-dioxopiperidin-3-yl)-1,3-dioxoisoindolin-5-yl)-2,7-diazaspiro[3.5]nonan-7-yl)methyl)cyclohexyl)-1H-1,2,4-triazole-5-formamide], under setting [1], the DC50 was in the range of 100 to 300 nM. In addition, the Dmax under setting [2] lay within 60 to 80%.
The corresponding values for `N#Cc1ccc(O[C@H]2CC[C@H](NC(=O)c3ncnn3[C@H]3CC[C@H](CN4CCC5(CC4)CN(c4cc6c(cc4F)C(=O)N(C4CCC(=O)NC4=O)C6=O)C5)CC3)CC2)cc1Cl` (some centres unmarked) [Compound 87] are 100 to 300 nM and 40 to 60%.
The corresponding values for `N#Cc1ccc(O[C@H]2CC[C@H](NC(=O)c3ccc(N4CC5(CN(C[C@@H]6[C@H]7CN(c8cc9c(cc8F)C(=O)N(C8CCC(=O)NC8=O)C9=O)C[C@@H]67)C5)C4)nn3)CC2)cc1Cl` (some centres unmarked) [Compound 92] are < 10 nM and > 80%.
In the same order, the values of `N#Cc1ccc(O[C@H]2CC[C@H](NC(=O)c3ccc(N4CCCN(C[C@@H]5[C@H]6CN(c7cc8c(cc7F)C(=O)N(C7CCC(=O)NC7=O)C8=O)C[C@@H]56)CC4)nn3)CC2)cc1Cl` (some centres unmarked) [Compound 93] are 10 to 100 nM and 60 to 80%.
With `N#Cc1ccc(OC2CCC(NC(=O)c3cnc(N4CCN(CC5[C@H]6CN(c7cc8c(cc7F)C(=O)N(C7CCC(=O)NC7=O)C8=O)C[C@@H]56)CC4)cn3)CC2)cc1C(F)(F)F` (some centres unmarked) [Compound 94], the “Dmax (%)” value is “+++ (key: ++++: >80%; +++: 80%-60%; ++: 60%-40%; +: <40%)” and the DC50 fell in the range of 10 to 100 nM.
Take `N#Cc1ccc(OC2CCC(NC(=O)c3ccc(N4CCN(CC5[C@H]6CN(c7cc8c(cc7F)C(=O)N(C7CCC(=O)NC7=O)C8=O)C[C@@H]56)CC4)nn3)CC2)cc1C(F)(F)F` (some centres unmarked) [Compound 95]: the “Dmax (%)” value is “+++ (key: ++++: >80%; +++: 80%-60%; ++: 60%-40%; +: <40%)” and the DC50 lay within 10 to 100 nM.
With `N#Cc1ccc(O[C@H]2CC[C@H](NC(=O)c3cnc(N4CC5(CCN(CC6CCN(c7cc8c(cc7F)C(=O)N(C7CCC(=O)NC7=O)C8=O)CC6)C5)C4)cn3)CC2)cc1Cl` (some centres unmarked) [Compound 96], under setting [1], the DC50 was < 10 nM. In addition, under setting [2], the Dmax was > 80%.
As for `N#Cc1ccc(O[C@H]2CC[C@H](NC(=O)c3ccc(N4CC5(CCN(C6CCN(c7cc8c(cc7F)C(=O)N(C7CCC(=O)NC7=O)C8=O)CC6)CC5)C4)nn3)CC2)cc1Cl` (some centres unmarked) [Compound 97, N-((1r,4r)-4-(3-chloro-4-cyanophenoxy)cyclohexyl)-6-(7-(1-(2-(2,6-dioxopiperidin-3-yl)-6-fluoro-1,3-dioxoisoindolin-5-yl)piperidine-4-yl)-2,7-diazaspiro[3.5]nonan-2-yl)pyridazine-3-carboxamide], the Dmax is > 80%. Moreover, the DC50 under setting [1] is < 10 nM.
Take `N#Cc1ccc(O[C@H]2CC[C@H](NC(=O)c3ncc(N4CC5(CCN(C6CCN(c7ccc8c(c7)C(=O)N(C7CCC(=O)NC7=O)C8=O)CC6)CC5)C4)cn3)CC2)cc1Cl` (some centres unmarked) [Compound 106, N-((1r,4r)-4-(3-chloro-4-cyanophenoxy)cyclohexyl)-5-(7-(1-(2-(2,6-dioxopiperidin-3-yl)-1,3-dioxoisoindolin-5-yl)piperidine-4-yl)-2,7-diazaspiro[3.5]nonan-2-yl)pyrimidine-2-carboxamide]: the Dmax is < 40%. In addition, the DC50 (AR degradation, VCaP cells, 16 h, ELISA, Table 3-2) was > 300 nM.

Source of the values: US20230091225A1, “Bifunctional chimeric heterocyclic compounds for targeted degradation of androgen receptors and use thereof” (HINOVA PHARMACEUTICALS INC., priority 2019, published 2023).
